Measurements as given in US20120129822A1, “COMPOSITION CONTAINING DIOSGENIN AND USE THEREOF TO IMPROVE AT LEAST ONE OF COGNITIVE DEFICITS ASSOCIATED WITH MENOPAUSAL SYNDROME” (TL & GM Chemical Company, priority 2010, published 2012).
“Also recorded” adds a separate entry of the source.

Experiments:
[1] = tested on: breast cancer-burdened mice; conditions: cited from earlier work
[2] = tested on: OVX rats with anxiety; experiment: Learned helplessness test (day-2 active avoidance test, shuttle box), OVX rats with anxiety; format: in vivo, female Wistar rats; conditions: 23 days; for Avoidance response (number) / Failure response (number) / Escape response (number): 16 trials, mean±SEM
Procedure: (§1) Three daily dosages of diosgenin, i.e., 10, 50, or 100 mg/kg, were administered to the experimental animals in the following experiments. A proper amount of diosgenin (Sigma, USA, required for formulating a respective one of the three daily dosages) was mixed with 1 g of toast or raw dough (prepared by mixing flour and water in a ratio of 2:1 (wt/wt)), thereby forming a diosgenin-containing pellet. The experimental animals were orally administered with the diosgenin-containing pellets, starting about 4 weeks after ovariectomy.
(§2) A shuttle box used in Example 1 (AccuScan, USA) is composed of two equal compartments. Each of the compartments has a grid floor made of stainless steel bars. The compartments are separated by a wall having a central door. Specifically, the central door can be closed to separate the two compartments, or can be opened to allow the experimental animals to move freely between the two compartments therethrough. A conditioned stimulus (CS, a stimulus consisting of a tone (75 db) and a light (250 lux) and lasting 3 seconds) and an unconditioned stimulus (UCS, an electric foot shock (0.5 mA) lasting a maximum of 10 seconds) were administered to the experimental animals from the shuttle box under control of a computer. The shuttle box was thoroughly cleaned using 20% ethanol and was subsequently thoroughly dried before each of the experimental animals was tested.
(§3) The OVX rats with and without anxiety, which were identified in the preceding section A, were respectively randomly subdivided into 4 groups including a control group and three experimental groups (respectively designated as diosgenin groups 1-3). The diosgenin-containing pellets (made using diosgenin and toast), which were prepared according to the method as described in the section entitled “2. Diosgenin-containing pellets” of the Experimental Materials, respectively comprised the three daily dosages of diosgenin (i.e., 10, 50, and 100 mg/kg), and were respectively administered to the OVX rats in diosgenin groups 1-3 daily. In other words, the daily dosage of diosgenin administered to the OVX rats in diosgenin group 1 was 10 mg/kg, the daily dosage of diosgenin administered to the OVX rats in diosgenin group 2 was 50 mg/kg, and the daily dosage of diosgenin administered to the OVX rats in diosgenin group 3 was 100 mg/kg. The toast without diosgenin was administered daily to the OVX rats in the control group. After 23 days of administration, the OVX rats in each group were subjected to the following learned helplessness test so as to investigate the effect of diosgenin on the learning ability of the OVX rats with and without anxiety under stress.
(§4) The learned helplessness test in this example was conducted substantially according to the methods as described in W. F. Wang et al. (2007), Chin. J. Physiol., 50:63-68 and Y. T. Lee et al. (2008), Neuroreport, 19:1243-1247, except for minor modifications. The learned helplessness test in this example is generally described as follows.
(§5) The respective OVX rat was placed in one of the two compartments of the shuttle box, and was allowed to explore the two compartments through the central door, which was opened, for 1 minute. Afterward, the central door was closed. The respective OVX rat was subjected to 40 trials of inescapable CS-UCS pairing. Specifically, each of the 40 trials of inescapable CS-UCS pairing consisted of a CS and a subsequent UCS, and a mean interval between the two successive trials of inescapable CS-UCS pairing was 60 seconds (the interval between the two successive trials of inescapable CS-UCS pairing ranged from 50 to 70 seconds).
(§6) The respective OVX rat was placed in one of the two compartments of the shuttle box, and was allowed to explore the two compartments through the central door, which was opened, for 1 minute. Subsequently, the respective OVX rat was subjected to 16 trials of escapable CS-UCS pairing. […]

[3] = tested on: OVX mice; conditions: cited from earlier work
[4] = tested on: OVX rats having clinical signs of osteoporosis; conditions: sustained delivery; cited from earlier work
[5] = tested on: OVX rats; experiment: Object recognition test in open box; format: in vivo, female Wistar rats
Procedure: Three daily dosages of diosgenin, i.e., 10, 50, or 100 mg/kg, were administered to the experimental animals in the following experiments. A proper amount of diosgenin (Sigma, USA, required for formulating a respective one of the three daily dosages) was mixed with 1 g of toast or raw dough (prepared by mixing flour and water in a ratio of 2:1 (wt/wt)), thereby forming a diosgenin-containing pellet. The experimental animals were orally administered with the diosgenin-containing pellets, starting about 4 weeks after ovariectomy. The open box is made of black polyvinyl plastics. Three objects, which are respectively designated as A1, A2, and A3, are identical in terms of size, color, shape, and material, and have no specific scents. Each of the objects A1, A2, A3 was placed on the bottom of the open box and was spaced apart from a respective one of three corners C1, C2, C3 of the open box by 21 cm (see FIG. 2(A)). The object A3 was later replaced with an object B different from the object A3 in terms of size, color, shape, and material, and having no specific scents (see FIG. 2(B)). Prior to an experiment, each of the objects A1, A2, A3, B was unfamiliar to the experimental animals. The open box and the objects A1, A2, A3, B were thoroughly cleaned using 20% ethanol, and were subsequently thoroughly dried before each of the experimental animals was tested. After the female Wistar rats were raised in the animal room for 4 weeks, the same were subjected to ovariectomy according to the method as described in the section, entitled “1. Ovariectomy”, of the General Experimental Procedure. On the 29th day after the surgery, the OVX rats were randomly divided into four groups including a control group (n=20) and three experimental groups (respectively designated as diosgenin group 1 (n=20), diosgenin group 2 (n=12), and diosgenin group 3 (n=19)). The diosgenin-containing pellets (made using diosgenin and raw dough), which were prepared according to the method as described in the section entitled “2. […]

[6] = tested on: OVX rats without anxiety; experiment: Learned helplessness test (day-2 active avoidance test, shuttle box), OVX rats without anxiety; format: in vivo, female Wistar rats; conditions: for Avoidance response (number) / Escape response (number) / Failure response (number): 23 days, 16 trials, mean±SEM
Procedure: as §1, §2, §3, §4, §5, §6

[7] = diosgenin group 1, 10 mg/kg daily oral, n=12
[8] = diosgenin group 2, 50 mg/kg daily oral, n=11
[9] = diosgenin group 3, 100 mg/kg daily oral, n=11
[10] = diosgenin group 1, 10 mg/kg daily oral, n=7
[11] = diosgenin group 2, 50 mg/kg daily oral, n=6
[12] = diosgenin group 3, 100 mg/kg daily oral, n=6

C[C@@H]1CC[C@@]2(OC1)O[C@H]1C[C@H]3[C@@H]4CC=C5C[C@@H](O)CC[C@]5(C)[C@H]4CC[C@]3(C)[C@H]1[C@@H]2C [diosgenin]
Tumor growth [1]: does not accelerate the tumor growth | Avoidance response (number) [2, 7]: 2.5 ± 0.9 number | Failure response (number) [2, 7]: 4.2 ± 1.3 number | Escape response (number) ([2]; diosgenin group 1, 10 mg/kg daily oral, n=12, p<0.05 vs control): 9.3 ± 1.3 number | Avoidance response (number) [2, 8]: 1.3 ± 0.5 number | Escape response (number) [2, 8]: 10.4 ± 1.4 number | Failure response (number) [2, 8]: 4.4 ± 1.4 number | Avoidance response (number) [2, 9]: 1.4 ± 0.4 number | Escape response (number) [2, 9]: 13.2 ± 0.6 number | Failure response (number) [2, 9]: 1.4 ± 0.5 number | Learning ability of the OVX rats with anxiety (result in words) ([2]; oral diosgenin-containing pellets): capable of significantly improving the learning ability of the OVX rats with anxiety | Epidermal thickness of OVX mice ([3]; animal model of menopause): capable of improving epidermal thickness | Keratinocyte proliferation in aged skin ([3]; animal model of menopause): able to restore keratinocyte proliferation in aged skin | Degree of fat accumulation [3]: without altering the degree of fat accumulation | Bone loss after ovariectomy [4]: significantly reduced | Side effects on other body organs [4]: without inducing side effects on other body organs | Exploration time spent on object B in the third trial, comparison among groups (result in words) ([5]; diosgenin group 2, 50 mg/kg daily oral, 26 days, FIG. 3): the longest | Exploration time spent on object B in the third trial versus object A3 in the second trial (result in words) ([5]; each of diosgenin groups 1-3 (10, 50, 100 mg/kg daily oral, 26 days), FIG. 3): longer than exploration time spent on object A3 in the second trial | Ability to memorize a familiar object and to recognize a difference between familiar and novel object (result in words) ([5]; oral diosgenin-containing pellets, 26 days): able to improve the ability to memorize a familiar object and the ability to recognize a difference between the familiar object and a novel object; also recorded: able to improve the ability to memorize a familiar object, and the ability to recognize a difference between the familiar object and a novel object | Avoidance response (number) [6, 10]: 1.3 ± 0.6 number | Escape response (number) [6, 10]: 11.7 ± 1.4 number | Failure response (number) [6, 10]: 3.0 ± 1.6 number | Avoidance response (number) [6, 11]: 1.2 ± 0.4 number | Escape response (number) [6, 11]: 13.8 ± 0.5 number | Failure response (number) [6, 11]: 0.7 ± 0.3 number | Avoidance response (number) [6, 12]: 2.5 ± 0.8 number | Escape response (number) [6, 12]: 12.5 ± 1.1 number | Failure response (number) [6, 12]: 0.8 ± 0.7 number | Number of avoidance response and number of escape response versus control group (result in words) ([6]; diosgenin groups 1-3 (10, 50, 100 mg/kg daily oral)): not obviously different from those regarding the OVX rats in the control group

C[C@]12CC[C@H](O)CC1=CC[C@@H]1[C@@H]2CC[C@]2(C)C(=O)CC[C@@H]12 [DHEA, dehydroepiandrosterone]
Bone loss after ovariectomy [4]: significantly reduced | Side effects on other body organs [4]: without inducing side effects on other body organs

estrogen
Bone loss after ovariectomy [4]: significantly reduced | Side effects on other body organs [4]: without inducing side effects on other body organs
